The text below walks through data of patent publication US8178688B2, “Benzamidine derivatives, process for the preparation thereof and pharmaceutical composition comprising the same” (Dong Wha Pharmaceutical Co., Ltd., priority 2004, dated 2012).

In the first experiment the test system is osteoclast differentiation. Put plainly: Inhibitory effects on osteoclast differentiation (co-culture of bone marrow cells with osteoblast, TRAP staining). In kind it is cell-based, mice. The note with it: Mus musculus, Osteoclast, 168 h; 1 m; co-culture of bone marrow cells and osteoblast, 7 days, TRAP-positive osteoclasts versus controls; read-out: % inhibitory activity on osteoclastogenesis. Put shortly: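 Bone marrow cells from 6–8-week male ddY mice co-cultured with neonatal ICR mouse calvarial osteoblasts in α-MEM/FBS with dexamethasone (10^−7M) and vitamin D3 (10^−8M) for 7 days, compound and medium renewed every 2–3 days. TRAP-positive cells with ≥3 nuclei counted; inhibition given as percent of control.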
On to `CN1CCN(c2nc(-c3ccc(OCCCCCOc4ccc(C(=N)NO)cc4)cc3)c(CC3CCCC3)s2)CC1` [Example 170, N-hydroxy-4-(5-(4-[5-cyclopentylmethyl-2-(4-methylpiperazino)-1,3-thiazol-4-yl]phenoxy)-pentoxy)-benzamidine], for which the inhibition at 1 µM worked out at 93.9%.
Turning to `C=Cc1sc(N2CCOCC2)nc1-c1ccc(OCCCCCOc2ccc(C(=N)NO)cc2)cc1` [Example 171, N-hydroxy-4-(5-[4-(5-vinyl-2-morpholin-4-yl-1,3-thiazol-4-yl)phenoxy]pentoxy)-benzamidine], the inhibition at 1 µM turned out to be 96.2%.
In the case of `N=C(NO)c1ccc(OCCCCCOc2ccc(-c3nc(N4CCOCC4)sc3C3CCCC3)cc2)cc1` [Example 172, N-hydroxy-4-(5-[4-(5-cyclopentyl-2-morpholin-4-yl-1,3-thiazol-4-yl)phenoxy]pentoxy)-benzamidine], the inhibition at 1 µM was 87.8%.
In the case of `CC(C)Cc1sc(N2CCOCC2)nc1-c1ccc(OCCCCCOc2ccc(C(=N)NO)cc2)cc1` [Example 173, N-hydroxy-4-[5-[4-(5-isobutyl-2-morpholin-4-yl-1,3-thiazol-4-yl)phenoxy]pentoxy)-benzamidine], the inhibition at 1 µM turned out to be 9%.
Turning to `N=C(NO)c1ccc(OCCCCCOc2ccc(-c3csc(N4CCOCC4)n3)cc2)cc1` [Example 175, N-hydroxy-4-(5-[4-(2-morpholin-4-yl-1,3-thiazol-4-yl)phenoxy]pentoxy)-benzamidine], the inhibition at 1 µM worked out at 61.9%.
Still for that read-out and setting: with `Cc1nc(-c2ccc(OCCOCCOc3ccc(C(=N)NO)cc3)cc2)c(C(C)C)s1` [Example 178, N-hydroxy-4-(2-[2-(4-(5-isopropyl-2-methyl-1,3-thiazol-4-yl)phenoxy)-ethoxy]-ethoxy)-benzamidine] the figure was 36.8%; with `Cc1nc(-c2ccc(OCCC(C)(O)CCOc3ccc(C(=N)NO)cc3)cc2)c(C(C)C)s1` (stereo not shown) [Example 179, N-hydroxy-4-(3-hydroxy-5-[4-(5-isopropyl-2-methyl-1,3-thiazol-4-yl)-phenoxy]-3-methyl-pentoxy)-benzamidine], 100%.
The same measure, in the same setting: with `Cc1nc(-c2ccc(OCC(C)NCCOc3ccc(C(=N)NO)cc3)cc2)c(C(C)C)s1` (stereo not shown) [Example 180, N-hydroxy-4-(2-[2-(4-(5-isopropyl-2-methyl-1,3-thiazol-4-yl)-phenoxy)-1-methyl-ethylamino]-ethoxy)-benzamidine] the figure was 32.6%; with `Cc1nc(-c2ccc(OCCCCC(=O)Nc3ccc(C(=N)NO)cc3)cc2)c(C(C)C)s1` [Example 182, N-hydroxy-4-(5-[4-(5-isopropyl-2-methyl-1,3-thiazol-4-yl)-phenoxy]-pentanoyl-amino)-benzamidine], 81.1%; with `Cc1nc(-c2ccc(OCCCCCN(C)c3ccc(C(=N)NO)cc3)cc2)c(C(C)C)s1` [Example 183, N-hydroxy-4-(5-[4-(5-isopropyl-2-methyl-1,3-thiazol-4-yl)-phenoxy]-pentyl-methyl-amino)-benzamidine], 65.6%.
Take `Cc1nc(-c2ccc(OCCNCCOc3ccc(C(=N)NO)cc3)cc2)c(C(C)C)s1` [Example 186, N-hydroxy-4-(2-[2-(4-(5-isopropyl-2-methyl-1,3-thiazol-4-yl)phenoxy)-ethylamino]-ethoxy)-benzamidine]: the inhibition at 1 µM is 71%.
As for `Cc1nc(-c2ccc(OCCCCCOc3ccc(C(=N)NO)c(NC4CCCCC4)c3)cc2)c(C(C)C)s1` [Example 190, N-hydroxy-2-cyclohexylamino-4-(5-[4-(5-isopropyl-2-methyl-1,3-thiazol-4-yl)-phenoxy]-pentoxy)-benzamidine], the inhibition at 1 µM stood at 27.3%.
For `Cc1nc(-c2ccc(OCCCCCOc3ccc(C(=N)NO)cc3)cc2F)c(C(C)C)s1` [Example 191, N-hydroxy-4-(5-[3-fluoro-4-(5-isopropyl-2-methyl-1,3-thiazol-4-yl)-phenoxy]-pentoxy)-benzamidine], the inhibition at 1 µM amounted to 8.8%.
Turning to `Cc1nc(-c2ccc(OCCCCCOc3ccc(C(=N)NO)c(F)c3)cc2F)c(C(C)C)s1` [Example 192, N-hydroxy-2-fluoro-4-(5-[3-fluoro-4-(5-isopropyl-2-methyl-1,3-thiazol-4-yl)-phenoxy]-pentoxy)-benzamidine], the inhibition at 1 µM is 70.5%.
As for `Cc1nc(-c2ccc(OCCCOc3ccc(C(=N)NO)cc3)cc2)c(C(C)C)s1` [Example 193, N-hydroxy-4-(3-[4-(5-isopropyl-2-methyl-1,3-thiazol-4-yl)phenoxy]propoxy)-benzamidine], the inhibition at 1 µM turned out to be 54.1%.
Consider `Cc1nc(-c2ccc(OCCCCOc3ccc(C(=N)NO)cc3)cc2)c(C(C)C)s1` [Example 194, N-hydroxy-4-(4-[4-(5-isopropyl-2-methyl-1,3-thiazol-4-yl)phenoxy]butoxy)-benzamidine], for which the inhibition at 1 µM stood at 19.8%.
Take `Cc1nc(-c2ccc(OCCCCCNc3cccc(C(=N)NO)c3)cc2)c(C(C)C)s1` [Example 195, N-hydroxy-3-(5-[4-(5-isopropyl-2-methyl-thiazol-4-yl)-phenoxy]-pentylamino)-benzamidine]: the inhibition at 1 µM was determined as 42.3%.
With `CCc1sc(C2CCCCC2)nc1-c1ccc(OCCCCOc2ccc(C(=N)NO)cc2)cc1` [Example 196, N-hydroxy-4-(4-[4-(2-cyclohexyl-5-ethyl-thiazol-4-yl)-phenoxy]-butoxy)-benzamidine], the inhibition at 1 µM turned out to be 82%.
Same read-out and setting: then `CCc1sc(N(C)CCO)nc1-c1ccc(OCCCCOc2ccc(C(=N)NO)cc2)cc1` [Example 198, N-hydroxy-4-(4-[4-(5-ethyl-2-[(2-hydroxyethyl)-methyl-amino]-thiazol-4-yl)phenoxy]butoxy)-benzamidine], with 36.9%; and `CCc1sc(N(C)Cc2cccnc2)nc1-c1ccc(OCCCOc2ccc(C(=N)NO)cc2)cc1` [Example 199, N-hydroxy-4-(3-[4-(5-ethyl-2-[methyl-(pyridin-3-yl-methyl)amino]-thiazol-4-yl)phenoxy]propoxy)-benzamidine], with 82.9%.
For `CCc1sc(N(C)Cc2cccnc2)nc1-c1ccc(OCCCCOc2ccc(C(=N)NO)cc2)cc1` [Example 200, N-hydroxy-4-(4-[4-(5-ethyl-2-[methyl-(pyridin-3-yl-methyl)amino]-thiazol-4-yl)phenoxy]butoxy)-benzamidine], the inhibition at 1 µM is 38.7%.
`CC(C)c1nc(-c2ccc(OCc3ccc(COc4ccc(C(=N)NO)cc4)cc3)cc2)c(CC2CCCC2)s1` [Example 201, N-hydroxy-4-(4-[4-(5-cyclopentylmethyl-2-isopropyl-thiazol-4-yl)-phenoxymethyl]-benzyloxy)-benzamidine]: the inhibition at 1 µM is 85.6%.
For the compound `CCCCc1sc(C(C)C)nc1-c1ccc(OCc2ccc(COc3ccc(C(=N)NO)cc3)cc2)cc1` [Example 202, N-hydroxy-4-(4-[4-(5-butyl-2-isopropyl-thiazol-4-yl)-phenoxymethyl]-benzyloxy)-benzamidine], the inhibition at 1 µM was 85.6%.
On the same count and under the same terms, then `Cc1nc(-c2ccc(OCc3cccc(COc4ccc(C(=N)NO)cc4)c3)cc2)c(C(C)C)s1` [Example 209, N-hydroxy-4-(3-[4-(5-isopropyl-2-methyl-thiazol-4-yl)-phenoxymethyl]-benzyloxy)-benzamidine], with 14.3%; and `N=C(NO)c1ccc(OCc2ccc(COc3ccc(-c4nc(C5CCCCC5)sc4CC4CCCC4)cc3)cc2)cc1` [Example 210, N-hydroxy-4-(4-[4-(5-cyclopentylmethyl-2-cyclohexyl-thiazol-4-yl)-phenoxymethyl]-benzyloxy)-benzamidine], with 68.8%; and `Cc1nc(-c2ccc(OCCCCCCOc3ccc(C(=N)NO)cc3)cc2)c(C(C)C)s1` [Example 211, N-hydroxy-4-(6-[4-(5-isopropyl-2-methyl-thiazol-4-yl)phenoxy]-hexyloxy)-benzamidine], with 44%.
As to `CCCOc1cc(OCCCCCOc2ccc(C(=N)NO)cc2)c(CC)cc1-c1csc(C)n1` [Example 213, N-hydroxy-4-(5-[2-ethyl-4-(2-methyl-thiazol-4-yl)-5-propoxy-phenoxy]-pentyloxy)-benzamidine], the inhibition at 1 µM turned out to be 91.8%.

Still in this experiment, the particulars now being: co-culture of bone marrow cells and osteoblast, 7 days, TRAP-positive osteoclasts versus controls.
On to `Cc1sc(N2CCCCC2)nc1-c1ccc(OCCCCCOc2ccc(C(=N)NO)cc2)cc1` [Example 164, N-hydroxy-4-(5-[4-(5-methyl-2-piperdino-1,3-thiazol-4-yl)phenoxy]pentoxy)-benzamidine], for which the “% inhibitory activity on osteoclastogenesis” value (“% inhibitory activity” for short) was 67.4%.
Regarding `COc1cc(C(=N)NO)ccc1OCCCCCOc1ccc(-c2nc(C)sc2C(C)C)cc1` [Example 189, N-hydroxy-4-(5-[4-(5-isopropyl-2-methyl-1,3-thiazol-4-yl)-phenoxy]-pentoxy-3-methoxy)-benzamidine], the “% inhibitory activity” value was 38.7%.
`N=C(NO)c1ccc(OCc2ccc(COc3ccc(-c4nc(N)sc4CC4CCCC4)cc3)cc2)cc1` [Example 203, N-hydroxy-4-(4-[4-(5-cyclopentylnnethyl-2-amino-thiazol-4-yl)-phenoxymethyl]-benzyloxy)-benzamidine]: the “% inhibitory activity” value is 68.8%.
The same measure, in the same setting: then `Cc1nc(-c2ccc(OCCCCOc3ccc(C(=N)NO)c(F)c3)cc2)c(C(C)C)s1` [Example 207, N-hydroxy-2-fluoro-4-(5-[4-(5-isopropyl-2-methyl-thiazol-4-yl)-phenoxy]-butoxy)-benzamidine], with 14.4%.
